Test results: PubChem BioAssay (NCI)
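GI50: concentration for 50% inhibition of growth. TGI denotes the concentration required for complete inhibition of growth.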

Tests used:
Test in all cases: growth of human tumour cells (NCI), 384-well format
786-0 renal = tested on: 786-0 renal
A498 renal = tested on: A498 renal
A549 NSCLC = tested on: A549 NSCLC
ACHN renal = tested on: ACHN renal
BT-549 breast = tested on: BT-549 breast
CAKI-1 renal = tested on: CAKI-1 renal
COLO 205 colon = tested on: COLO 205 colon
DU-145 prostate = tested on: DU-145 prostate
EKVX NSCLC = tested on: EKVX NSCLC
HCT-116 colon = tested on: HCT-116 colon
HCT-15 colon = tested on: HCT-15 colon
HL-60(TB) leukemia = tested on: HL-60(TB) leukemia
HOP-62 NSCLC = tested on: HOP-62 NSCLC
HOP-92 NSCLC = tested on: HOP-92 NSCLC
HS 578T breast = tested on: HS 578T breast
IGROV1 ovarian = tested on: IGROV1 ovarian
KM12 colon = tested on: KM12 colon
LOX IMVI melanoma = tested on: LOX IMVI melanoma
M14 melanoma = tested on: M14 melanoma
MALME-3M melanoma = tested on: MALME-3M melanoma
MCF7 breast = tested on: MCF7 breast
MDA-MB-231 breast = tested on: MDA-MB-231 breast
MDA-MB-435 melanoma = tested on: MDA-MB-435 melanoma
MDA-MB-468 breast = tested on: MDA-MB-468 breast
MOLT-4 leukemia = tested on: MOLT-4 leukemia
NCI-H226 lung = tested on: NCI-H226 lung
NCI-H23 lung = tested on: NCI-H23 lung
NCI-H322M lung = tested on: NCI-H322M lung
NCI-H460 NSCLC = tested on: NCI-H460 NSCLC
NCI-H522 lung = tested on: NCI-H522 lung
NCI/ADR-RES ovarian = tested on: NCI/ADR-RES ovarian
OVCAR-3 ovarian = tested on: OVCAR-3 ovarian
OVCAR-4 ovarian = tested on: OVCAR-4 ovarian
OVCAR-5 ovarian = tested on: OVCAR-5 ovarian
OVCAR-8 ovarian = tested on: OVCAR-8 ovarian
PC-3 prostate = tested on: PC-3 prostate
RPMI-8226 leukemia = tested on: RPMI-8226 leukemia
RXF 393 renal = tested on: RXF 393 renal
SF-268 CNS = tested on: SF-268 CNS
SF-295 CNS = tested on: SF-295 CNS
SF-539 CNS = tested on: SF-539 CNS
SK-MEL-28 melanoma = tested on: SK-MEL-28 melanoma
SK-MEL-5 melanoma = tested on: SK-MEL-5 melanoma
SK-OV-3 ovarian = tested on: SK-OV-3 ovarian
SN12C renal = tested on: SN12C renal
SNB-19 CNS = tested on: SNB-19 CNS
SNB-75 CNS = tested on: SNB-75 CNS
SR leukemia = tested on: SR leukemia
SW-620 colon = tested on: SW-620 colon
T-47D breast = tested on: T-47D breast
TK-10 renal = tested on: TK-10 renal
U251 glioblastoma = tested on: U251 glioblastoma
UACC-257 melanoma = tested on: UACC-257 melanoma
UACC-62 melanoma = tested on: UACC-62 melanoma
UO-31 renal = tested on: UO-31 renal

## N#CC[C@H](C1CCCC1)n1cc(-c2ncnc3[nH]ccc23)cn1
786-0 renal
  GI50: 17.4 µM
  TGI: 43.9 µM
A498 renal
  GI50: 21.7 µM
  TGI: 41.6 µM
A549 NSCLC
  GI50: 18.3 µM
  TGI: 52.6 µM
ACHN renal
  GI50: 21.1 µM
  TGI: 50.9 µM
BT-549 breast
  GI50: 19.8 µM
  TGI: 34.6 µM
CAKI-1 renal
  GI50: 21.3 µM
  TGI: 50.5 µM
COLO 205 colon
  GI50: 24.7 µM
  TGI: 53.1 µM
DU-145 prostate
  GI50: 16 µM
  TGI: 42.1 µM
EKVX NSCLC
  GI50: 20.9 µM
  TGI: 66 µM
HCT-116 colon
  GI50: 23.5 µM
  TGI: 63.4 µM
HCT-15 colon
  GI50: 26.2 µM
  TGI: 82.1 µM
HL-60(TB) leukemia
  GI50: 23.9 µM
  TGI: 38.8 µM
HOP-62 NSCLC
  GI50: 18.7 µM
  TGI: 37.1 µM
HOP-92 NSCLC
  GI50: 22.2 µM
  TGI: 56.3 µM
HS 578T breast
  GI50: 12.4 µM
  TGI: 26 µM
IGROV1 ovarian
  GI50: 22.7 µM
  TGI: 84.4 µM
KM12 colon
  GI50: 4.07 µM
  TGI: > 100 µM
LOX IMVI melanoma
  GI50: 19.1 µM
  TGI: 35.8 µM
M14 melanoma
  GI50: 27.2 µM
  TGI: 50.9 µM
MALME-3M melanoma
  GI50: 19 µM
  TGI: 34.7 µM
MCF7 breast
  GI50: 25.9 µM
  TGI: 77.7 µM
MDA-MB-231 breast
  GI50: 16.4 µM
  TGI: 40.3 µM
MDA-MB-435 melanoma
  GI50: 26.6 µM
  TGI: 66.5 µM
MDA-MB-468 breast
  GI50: 23.2 µM
  TGI: 53.5 µM
MOLT-4 leukemia
  GI50: 18.3 µM
  TGI: 46.1 µM
NCI-H226 lung
  GI50: 5.75 µM
  TGI: 25 µM
NCI-H23 lung
  GI50: 17.1 µM
  TGI: 32.8 µM
NCI-H322M lung
  GI50: 26.3 µM
  TGI: 58.7 µM
NCI-H460 NSCLC
  GI50: 16 µM
  TGI: 46.7 µM
NCI-H522 lung
  GI50: 13.6 µM
  TGI: 29.5 µM
NCI/ADR-RES ovarian
  GI50: 23.4 µM
  TGI: 50.3 µM
OVCAR-3 ovarian
  GI50: 25.8 µM
  TGI: 51.8 µM
OVCAR-4 ovarian
  GI50: 29 µM
  TGI: 51.2 µM
OVCAR-5 ovarian
  GI50: 23.5 µM
  TGI: 48.7 µM
OVCAR-8 ovarian
  GI50: 27.6 µM
  TGI: 75.8 µM
PC-3 prostate
  GI50: 25.7 µM
  TGI: 58.1 µM
RPMI-8226 leukemia
  GI50: 19.4 µM
  TGI: 34.6 µM
RXF 393 renal
  GI50: 12.9 µM
  TGI: 30.4 µM
SF-268 CNS
  GI50: 16.2 µM
  TGI: 36.6 µM
SF-295 CNS
  GI50: 18.3 µM
  TGI: 37.9 µM
SF-539 CNS
  GI50: 19.7 µM
  TGI: 42 µM
SK-MEL-28 melanoma
  GI50: 23 µM
  TGI: 55.7 µM
SK-MEL-5 melanoma
  GI50: 18.2 µM
  TGI: 33.1 µM
SK-OV-3 ovarian
  GI50: 21 µM
  TGI: 45.9 µM
SN12C renal
  GI50: 18.7 µM
  TGI: 49.7 µM
SNB-19 CNS
  GI50: 30.6 µM
  TGI: 82.7 µM
SNB-75 CNS
  GI50: 18.4 µM
  TGI: 41.3 µM
SR leukemia
  GI50: 8.31 µM
  TGI: 20.6 µM
SW-620 colon
  GI50: 29.7 µM
  TGI: > 100 µM
T-47D breast
  GI50: 19.5 µM
  TGI: 63.9 µM
TK-10 renal
  GI50: 29 µM
  TGI: 89.6 µM
U251 glioblastoma
  GI50: 28.4 µM
  TGI: 71.8 µM
UACC-257 melanoma
  GI50: 25.9 µM
  TGI: 68.5 µM
UACC-62 melanoma
  GI50: 21.5 µM
  TGI: 41.7 µM
UO-31 renal
  GI50: 18.1 µM
  TGI: 47.9 µM
